Results on four molecules are retold here after EPA's ToxRefDB 2.

Data set [1] has as its system rat. Particulars: Subchronic oral toxicity in rodents, fischer, Gavage/Intubation, dose end: 3 month, group: systemic.
The test system of data set [2] is mouse. Particulars: Subchronic oral toxicity in rodents, b6c3f1, Gavage/Intubation, dose end: 3 month, group: systemic.
Data set [3] concerns rat. The conditions noted are these: Combined chronic toxicity/carcinogenicity, sprague dawley, Oral, Feed, dose end: 24 month, group: systemic.
Data set [4] has as its system mouse. Particulars: Carcinogenicity; cd1; Oral; Feed; dose end: 24 month; group: systemic; systemic / in life observation / body weight / body weight + systemic / pathology microscopic / kidney / basophilia + systemic / pathology ….
The subject of data set [5] is rat. The conditions noted are these: Multigenerational reproductive toxicity study, sprague dawley, Oral, Feed, dose end: 2 generation.
Data set [6] has as its system rat. The conditions noted are these: Subchronic oral toxicity in rodents, sprague dawley, Feed, dose end: 3 month, group: systemic, systemic / clinical chemistry / glucose / glucose + systemic / clinical chemistry / phosphorus / phosphorus + systemic / clinical chemistry….
For data set [7], the system named is rat. Particulars: Prenatal developmental toxicity study, sprague dawley, Oral, Gavage/Intubation, dose end: 19 GD.
Data set [8] concerns dog. Particulars: Chronic toxicity, beagle, Oral, Feed, dose end: 1 year, group: cholinesterase.
The test system of data set [9] is rat. Particulars: Subchronic oral toxicity in rodents, wistar, Feed, dose end: 86 day.
Data set [10] deals with mouse. The conditions noted are these: Combined chronic toxicity/carcinogenicity, b6c3f1, Oral, Feed, dose end: 2 year.
In a further data set the test system is rabbit. Particulars: Prenatal developmental toxicity study, himalayan, Oral, Gavage/Intubation, dose end: 18 GD.
Data set [11] concerns dog. Particulars: Subchronic oral toxicity in nonrodent, beagle, Feed, dose end: 90 day, group: systemic.
Data set [12] deals with rat. The conditions noted are these: Prenatal developmental toxicity study, sprague dawley, Oral, Gavage/Intubation, dose end: 15 GD.
The test system of data set [13] is dog. Particulars: Chronic toxicity, beagle, Oral, Feed, dose end: 1 year, group: systemic.
The subject of data set [14] is rat. Particulars: Subchronic oral toxicity in rodents, sprague dawley, Feed, dose end: 90 day, group: systemic, systemic / clinical chemistry / alkaline phosphatase (alp/alk) / alkaline phosphatase (alp/alk) + systemic / hematology / mean corpuscular ….
For data set [15], the system named is rat. Particulars: Combined chronic toxicity/carcinogenicity, sprague dawley, Oral, Feed, dose end: 24 month, group: systemic. This is another data set of the same source.
Where [16] appears, read: systemic / clinical chemistry / alanine aminotransferase (alt/sgpt) / alanine aminotransferase (alt/sgpt) + systemic / clinical chemistry / ….
[17] abbreviates: systemic / pathology microscopic / liver / hyperplasia + systemic / pathology microscopic / liver / inflammation + systemic / hematology / ….
Where [18] appears, read: systemic / in life observation / body weight / body weight + systemic / in life observation / body weight / body weight gain + systemic / in….
[19] abbreviates: systemic / pathology microscopic / stomach / inflammation.
Setting [20] is: systemic / pathology microscopic / stomach / inflammation + systemic / in life observation / body weight / body weight + systemic / in life ….
Where [21] appears, read: group: offspring, systemic / in life observation / body weight / offspring (pup) weight + systemic / in life observation / body weight / offspring (pup) ….
Where [22] appears, read: group: parental, systemic / in life observation / body weight / body weight + systemic / in life observation / clinical signs / soft stools.
Setting [23] is: group: parental, systemic / in life observation / body weight / body weight + systemic / in life observation / clinical signs / soft stools + systemic / in ….
Where [24] appears, read: group: developmental, developmental / developmental malformation / bone / unossified + systemic / in life observation / body weight / fetal weight.
[25] abbreviates: group: maternal, systemic / in life observation / body weight / body weight gain + systemic / in life observation / clinical signs / defecation (diarrhea) + ….
Where [26] appears, read: cholinesterase / cholinesterase / cholinesterase / brain cholinesterase (che) + cholinesterase / cholinesterase / cholinesterase / plasma ….
Setting [27] is: cholinesterase / cholinesterase / cholinesterase / brain cholinesterase (che) + cholinesterase / cholinesterase / cholinesterase / ….
[28] abbreviates: group: cholinesterase, cholinesterase / cholinesterase / cholinesterase / brain (regional) cholinesterase (che) + cholinesterase / cholinesterase / cholinesterase….
Setting [29] is: group: cholinesterase, cholinesterase / cholinesterase / cholinesterase / erythrocyte cholinesterase (che).
Setting [30] is: group: systemic, systemic / pathology microscopic / seminal vesicle / colloid content.
Setting [31] is: group: systemic, systemic / in life observation / body weight / body weight + systemic / in life observation / body weight / body weight gain + systemic / in….
Where [32] appears, read: group: systemic, systemic / organ weight / adrenal gland / nos.
[33] abbreviates: group: maternal, reproductive / reproductive performance / resorptions / resorptions + reproductive / reproductive performance / aborted / aborted + systemic….
The mark [34] stands for this setting: systemic / in life observation / body weight / body weight gain + systemic / clinical chemistry / alanine aminotransferase (alt/sgpt) / ….
[35] abbreviates: group: developmental, developmental / developmental malformation / bone / supernumerary + developmental / developmental malformation / bone / unossified.
The mark [36] stands for this setting: group: maternal, systemic / in life observation / body weight / body weight gain + systemic / in life observation / clinical signs / salivation + systemic / ….
Where [37] appears, read: systemic / pathology microscopic / liver / hyperplasia + systemic / pathology microscopic / liver / hypertrophy + systemic / clinical ….
[38] abbreviates: systemic / clinical chemistry / gamma glutamyl transferase (ggt) / gamma glutamyl transferase (ggt) + systemic / organ weight / kidney / ….
[39] abbreviates: systemic / hematology / anemia / anemia - hemolytic + systemic / hematology / erythrocyte (rbc) count differential / erythrocyte (rbc) + ….

Turning to `C=CCc1ccc(OC)cc1` [Estragole], in the data set with rat [1] (setting [16]), the LOAEL is over 600 mg/kg/day and the NOAEL is at least 600 mg/kg/day. For the same molecule, in the data set on rat [1] (setting [17]), the LEL is 37.5 mg/kg/day and the NEL was under 37.5 mg/kg/day. Further, in the data set with mouse [2] (setting [18]), the LOAEL was over 600 mg/kg/day, the NEL was 37.5 mg/kg/day and the NOAEL was at least 600 mg/kg/day. Moreover, in the data set on mouse [2] (systemic / in life observation / body weight / body weight + systemic / in life observation / body weight / body weight gain + systemic / …), the LEL amounted to 75 mg/kg/day.
As for `O=C(O)CNCP(=O)(O)O` [Glyphosate], the LEL was determined as 457 mg/kg/day in the data set on rat [3] (setting [19]); 4500 mg/kg/day in the data set on mouse [4]; 1500 mg/kg/day in the data set with rat [5] (setting [21]); 1500 mg/kg/day in the data set on rat [5] (setting [23]); 63 mg/kg/day in the data set on rat [6]; 3500 mg/kg/day with rat [7] (setting [24]). The LEL in the data set with rat [7] (setting [25]) was found to be 3500 mg/kg/day. Besides, the LOAEL with rat [3] (setting [19]) is 457 mg/kg/day; with mouse [4] it was 4500 mg/kg/day; in the data set with rat [5] (setting [21]), 1500 mg/kg/day; in the data set on rat [5] (setting [23]) it was 1500 mg/kg/day; with rat [6], over 1270 mg/kg/day; in the data set on rat [7] (setting [24]), 3500 mg/kg/day. Besides, the LOAEL in the data set with rat [7] (setting [25]) worked out at 3500 mg/kg/day. In addition, the NEL in the data set with rat [3] (setting [20]) is 113 mg/kg/day; with mouse [4], 750 mg/kg/day; with rat [5] (setting [21]), 500 mg/kg/day; in the data set with rat [5] (setting [22]) it was 500 mg/kg/day; in the data set on rat [6], under 63 mg/kg/day; in the data set with rat [7] (setting [24]), 1000 mg/kg/day. The NEL in the data set on rat [7] (setting [25]) is 1000 mg/kg/day. Besides, the NOAEL in the data set on rat [3] (setting [20]) is 113 mg/kg/day; with mouse [4], 750 mg/kg/day; with rat [5] (setting [21]) it was 500 mg/kg/day; with rat [5] (setting [22]), 500 mg/kg/day; in the data set with rat [6] it was at least 1270 mg/kg/day; in the data set on rat [7] (setting [24]), 1000 mg/kg/day. In addition, the NOAEL with rat [7] (setting [25]) turned out to be 1000 mg/kg/day.
On to `CCOP(=S)(Oc1cnc(C(C)(C)C)nc1)OC(C)C` (stereo not drawn) [Tebupirimfos], for which the LEL turned out to be 0.005 mg/kg/day with dog [8] (setting [26]); 0.3 mg/kg/day with rat [9] (setting [29]); 0.2 mg/kg/day in the data set on rat [9] (setting [30]); 0.16 mg/kg/day in the data set on mouse [10] (setting [29]); 0.52 mg/kg/day in the data set with mouse [10] (setting [32]); 0.3 mg/kg/day in the data set with rabbit (setting [29]). For the same molecule, in the data set with rabbit (group: maternal, reproductive / reproductive performance / resorptions / resorptions + reproductive / offspring survival early / live fetuses / live fetuses…), the LEL stood at 0.3 mg/kg/day. The NEL with dog [8] (setting [26]) was under 0.005 mg/kg/day; with rat [9] (setting [28]), 0.2 mg/kg/day; in the data set on rat [9] (setting [30]), under 0.2 mg/kg/day; with mouse [10] (setting [29]), under 0.16 mg/kg/day; in the data set on mouse [10] (setting [32]), under 0.52 mg/kg/day; in the data set with rabbit (setting [29]), 0.1 mg/kg/day. Further, the NEL in the data set on rabbit (setting [33]) was determined as 0.1 mg/kg/day. Also, the lowest-observed-adverse-effect level (LOAEL) came out at 0.125 mg/kg/day with dog [8] (setting [27]); 1 mg/kg/day in the data set on rat [9] (setting [28]); 3.6 mg/kg/day with rat [9] (group: systemic, systemic / in life observation / body weight / body weight gain + systemic / in life observation / food consumption / food consumption); 0.16 mg/kg/day with mouse [10] (setting [29]); 38.8 mg/kg/day in the data set with mouse [10] (setting [31]); 0.3 mg/kg/day in the data set on rabbit (setting [29]). Moreover, the LOAEL in the data set with rabbit (group: maternal, reproductive / reproductive performance / resorptions / resorptions + reproductive / offspring survival early / live fetuses / live fetuses) amounted to 0.3 mg/kg/day. Besides, the NOAEL in the data set on dog [8] (setting [27]) was 0.02 mg/kg/day; in the data set on rat [9] (setting [28]) it was 0.3 mg/kg/day; in the data set on rat [9] (group: systemic, systemic / in life observation / body weight / body weight gain + systemic / in life observation / food consumption / food consumption + …), 1 mg/kg/day; in the data set with mouse [10] (setting [29]) it was under 0.16 mg/kg/day; in the data set on mouse [10] (setting [31]), 4.53 mg/kg/day; in the data set on rabbit (setting [29]), 0.1 mg/kg/day. Also, the NOAEL in the data set with rabbit (setting [33]) is 0.1 mg/kg/day.
For `COC(=O)c1c(C(F)F)nc(C(F)(F)F)c(C2=NCCS2)c1CC(C)C` [Thiazopyr], the LOAEL in the data set with dog [11] (systemic / in life observation / body weight / body weight gain) came out at 3 mg/kg/day; in the data set with rat [12] (setting [35]) it was 250 mg/kg/day; in the data set with rat [12] (setting [36]), 250 mg/kg/day; in the data set on dog [13] (systemic / pathology microscopic / liver / hyperplasia + systemic / pathology microscopic / liver / hypertrophy) it was 7.8 mg/kg/day; in the data set on rat [14], 68 mg/kg/day; in the data set on rat [15] (setting [38]), 44.2 mg/kg/day. The NEL amounted to 2 mg/kg/day in the data set on dog [11] (setting [34]); 100 mg/kg/day in the data set on rat [12] (setting [35]); 10 mg/kg/day with rat [12] (setting [36]); 0.8 mg/kg/day in the data set with dog [13] (setting [37]); 6.6 mg/kg/day in the data set with rat [14]; 0.6 mg/kg/day in the data set on rat [15] (setting [39]). In addition, the NOAEL in the data set with dog [11] (setting [34]) was 2 mg/kg/day; with rat [12] (setting [35]), 100 mg/kg/day; with rat [12] (setting [36]) it was 100 mg/kg/day; with dog [13] (setting [37]), 0.8 mg/kg/day; with rat [14], 6.6 mg/kg/day; with rat [15] (setting [38]), 4.4 mg/kg/day. Also, the LEL is 3 mg/kg/day with dog [11] (systemic / in life observation / body weight / body weight gain + systemic / clinical chemistry / albumin-globulin ratio / albumin-globulin …); 250 mg/kg/day with rat [12] (setting [35]); 100 mg/kg/day with rat [12] (group: maternal, systemic / organ weight / liver / nos); 7.8 mg/kg/day in the data set with dog [13] (setting [37]); 68 mg/kg/day in the data set with rat [14]; 5.6 mg/kg/day in the data set on rat [15] (setting [39]).

By LOAEL is commonly meant the lowest tested level that showed an adverse finding. What is called NOAEL is the highest dose or exposure tested at which no adverse effect was seen.
